{"source": "paper PMC5769417", "about": "“Single- and Multiple-Dose Trials to Determine the Pharmacokinetics, Safety, Tolerability, and Sex Effect of Oral Ginsenoside Compound K in Healthy Chinese Volunteers” (Frontiers in Pharmacology, 2018)", "key": {"Sprague Dawley (SD) rats": {"system": "Sprague Dawley (SD) rats", "details": "cited from earlier work"}, "CYP2C9": {"system": "CYP2C9", "set-up": "method as in Xiao et al., 2016", "details": "human liver microsomes, human recombinant CYPs; ref Xiao et al., 2016; cited from earlier work"}, "[1]": {"test": "Single-dose trial, cumulative urine excretion", "assay_type": "in vivo, human", "details": "fasting, urine 0–48 h", "description": "Single-dose pharmacokinetics: In the 25 and 50 mg dose groups, serial blood samples were collected at pre-dose (t = 0) and at 0.25, 0.5, 1, 1.5, 2, 2.5, 3, 3.5, 4, 5, 6, 8, 12, 24, 36, and 48 h post-dose. From the 100 to 800 mg dose groups, blood samples were additionally collected at 72 and 96 h post-dose. Plasma was separated from whole blood by refrigerated centrifugation (3,000 rpm, 10 min), within 1 h after sampling, transferred to labeled storage tubes, and stored at −70°C prior to workup and analysis. Urine samples were collected at different time periods: 0–2, 2–4, 4–6, 6–8, 8–10, 10–12, 12–24, and 24–48 h post-dose and the volume was measured immediately after collection from each subject. We preserved 8 ml specimens into 10 ml centrifuge tubes and stored at −70°C for PK assessment.\nThe processing method of the urine samples was similar to the method used for the plasma samples. For CK, the only difference was in the mobile phase (acetonitrile: 10 mM aqueous ammonium acetate = 50:50, V/V, for plasma samples; acetonitrile: 20 mM aqueous ammonium acetate = 60:40, V/V, for urine samples; acetonitrile, Merck KGaA, Darmstadt, Germany; ammonium acetate, CNW technologies GmbH, Duesseldorf, Germany). As for 20(S)-PPD, neither the IS nor the mobile phase were the same (IS: coumarin for plasma samples and finasteride for urine samples; mobile phase was acetonitrile: 10 mM aqueous ammonium acetate = 50: 50, V/V, for plasma samples, and acetonitrile: 0.1% formic acid aqueous solution = 50: 50, V/V, for urine samples). The calibration curve range for CK was linear from 1.00 to 1002.0 ng·ml^−1 with a correlation coefficient equal to 0.9984, and from 0.15 to 54.30 ng·ml^−1 with a correlation coefficient equal to 0.9978 for 20(S)-PPD. Three levels of QC samples (2.00, 50.10, or 801.60 ng.ml^−1 CK) were prepared in urine for testing accuracy and coefficient of variations (CVs), and the values were 94–103% and 1.06–6.54%, respectively.\nExperimental observations provided the plasma CK and 20(S)-PPD concentrations vs. the time data after single-dose administration, including maximum plasma concentration (Cmax) and the time to maximum plasm concentration (Tmax). The area under the curve (AUC) from time zero to the last time point (AUClast) and the AUC extrapolated to infinity (AUCinf) were calculated using the linear trapezoidal rule. The slope (elimination rate constant, K) of the terminal phase of the plasma concentration-time profile was determined, using a weighting factor of 1, by the method of least squares (log-linear regression of at least three data points). The t1/2 was estimated as (ln2)/K. The apparent plasma clearance of the drug after oral administration (CL/F) was expressed as a function of bioavailability (F) and calculated as the dose divided by AUCinf, assuming that the complete systemic bioavailability F = 1. The apparent volume of distribution (V/F) was equal to (CL/F)/K. The mean residence time (MRT) was calculated as the area under the first moments curve (AUMC) divided by AUC. The dose-normalized PK parameters e.g., Cmax/D and AUClast/D, were obtained by dividing each PK result by the administered dose. The cumulative excretion rate was calculated as the amount of unchanged drug in the urine over a time interval divided by the dose and was expressed as thousand points (‰)."}}, "note": "Values joined by “and” are separate entries in the source; they are usually repeats but may differ in a detail not shown here. Equal values may be shown once."}
{"compound": "CC(C)=CCC[C@](C)(OC1O[C@H](CO)[C@@H](O)[C@H](O)[C@H]1O)[C@H]1CC[C@]2(C)[C@@H]1[C@H](O)C[C@@H]1[C@@]3(C)CC[C@H](O)C(C)(C)[C@@H]3CC[C@]12C", "note": "(stereo partly drawn) [CK, 20-O-beta-D-glucopyranosyl-20(S)-protopanaxadiol]", "values": [{"measurement": "dose at which diarrhea symptom occurred", "setting": "Sprague Dawley (SD) rats; long-term toxicity test, Sprague Dawley (SD) rats", "result": 150, "unit": "mg/kg"}, {"measurement": "No observed adverse effect level (NOAEL)", "setting": "Sprague Dawley (SD) rats; rats", "result": 25.0, "unit": "mg/kg"}, {"measurement": "inhibition of CYP2C9", "setting": "CYP2C9", "result": "moderate inhibitor"}, {"measurement": "substrate of CYP2C9", "setting": "CYP2C9", "result": "substrate"}, {"measurement": "Ae, accumulative urine excretion rate", "setting": "[1]; 25 mg oral", "result": "0.41 ± 0.29 ‰"}, {"measurement": "Ae, accumulative urine excretion rate", "setting": "[1]; 50 mg oral", "result": "0.46 ‰ and 0.46 ± 0.34 ‰"}, {"measurement": "Ae, accumulative urine excretion rate", "setting": "[1]; 100 mg oral", "result": "0.25 ± 0.13 ‰"}, {"measurement": "Ae, accumulative urine excretion rate", "setting": "[1]; 200 mg oral", "result": "0.27 ± 0.15 ‰"}, {"measurement": "Ae, accumulative urine excretion rate", "setting": "[1]; 400 mg oral", "result": "0.19 ± 0.13 ‰"}, {"measurement": "Ae, accumulative urine excretion rate", "setting": "[1]; 600 mg oral", "result": "0.10 ‰ and 0.10 ± 0.08 ‰"}, {"measurement": "Ae, accumulative urine excretion rate", "setting": "[1]; 800 mg oral", "result": "0.10 ‰ and 0.10 ± 0.04 ‰"}]}
